{"source": "patent US11607422B2", "about": "“Uttroside B and derivatives thereof as therapeutics for hepatocellular carcinoma” (Rajiv Gandhi Centre for Biotechnology, an Autonomous …, priority 2016, dated 2023)", "key": {"HepG2 cells [1]": {"test_system": "HepG2 cells", "assay": "MTT assay of Uttroside B with autophagy inhibitor", "format": "cell-based, human", "details": "3 MA 1 mM, 72 h"}, "[2]": {"test_system": "PARP and caspase 9 in HepG2 cells", "assay": "Western blot of PARP and caspase 9 cleavage with inhibition of autophagy", "format": "cell-based, human", "details": "for effect of autophagy inhibitor on Uttroside B-induced caspase 9 activation: HepG2, Western blot; for effect of autophagy inhibitor on Uttroside B-induced cleavage of PARP: HepG2, pretreatment with inhibitor", "description": "Western blot analysis. Approximately 0.5×10^6 cells were grown on 60 mm culture plates and exposed to drugs as indicated for the desired time. The cells were then scraped out, washed in ice cold 1× PBS and pelleted down at 13000 rpm for 2 min. The pelleted cells were suspended in 150 μL of ice-cold whole cell lysis buffer[(20 mMTris of pH 7.4, 250 mM NaCl, 2 mM EDTA, 0.1% Triton, 1 mM DTT (1,4-dithiothreitol), 0.5 mM PMSF, 4 mM sodium orthovanadate, aprotinin (5 mg m/L) and leupeptin (5 mg m/L)] and kept in ice for 30 min, with intermittent vortexing every 5 min. After incubation, the lysate was centrifuged at 13000 rpm for 10 min at 4° C. and the supernatant was collected. The total protein content in the lysate was estimated by Bradford's method, and was then denatured by boiling with 5× loading dye before separating the proteins by SDSpolyacrylamidegel electrophoresis (SDS-PAGE). Following electrophoresis, the polyacrylamide gel and a PVDF membrane were equilibrated with Towbins buffer (1 L, 25 mM Tris, 192 mM glycine, 20% (v/v) methanol (pH 8.3) for 15-30 min and the separated proteins were electro-transferred to PVDF membrane (Hybond-P, GE Healthcare Life science) using Bio-Rad Mini PROTEAN III wet blot apparatus at 100 V for 2 h at cold conditions. After the transfer, the membrane was rinsed with TBS-T (20 mM Tris pH 7.5, 150 mM NaCl, 0.1% Tween 20) buffer and stained with Ponceau-S to ensure uniform transfer. After washing off the Ponceau stain with TBST, the membrane was exposed to 5% fat free milk in TBST buffer for 1 h at room temperature to block the nonspecific binding of antibodies, followed by overnight incubation with the primary antibody [1:1000 dilution] in 3% BSA in TBST buffer at 4° C. Excess antibody was washed off with TBST buffer and incubated with corresponding secondary antibody [1:5000 dilution] coupled with horse radish peroxidase (HRP) in 5% fat free milk in TBST buffer. The bands were visualized using enhanced chemiluminescence kit (Millipore, St Charles, Mo., United States) following manufacturer's protocol.\nHepG2 was transiently transfected with Beclin siRNA and control siRNA using Lipofectamine LTX Plus reagent kit according to manufacturer's protocol (Invitrogen, USA). 0.35×10^6cells per well were seeded in a six well tissue culture plate containing 2 ml antibiotic-free normal growth medium supplemented with FBS and the cells were incubated to attain 60% confluency. Beclin siRNA duplex solution (Solution A) was added directly to the dilute transfection reagent (LP LTX plus reagent) (Solution B). The solution was mixed gently by pipetting up and down and incubated for 45 minutes at room temperature. The cells were washed gently with 2 ml of transfection medium (optiMEM medium). […]"}, "LC3 in HepG2 cells": {"test_system": "LC3 in HepG2 cells", "assay": "Autophagy flux (LC3I to LC3II conversion) with Bafilomycin", "format": "cell-based, human", "details": "HepG2, LC3 II accumulation", "description": "Concentration dependent effect of BafilomycinAl on the endogenous conversion of LC3I to LC3II in HepG2 cells. Cells were treated with Bafilomycin Al at different concentration and the whole cell lysate was resolved on a 15% gel and immunoblotted against LC3 antibody. Uttroside B is an autophagy inducer in HepG2 cells as analysed by autophagy flux using Bafilomycin Al. […] The increase in LC3 II could not be considered as a fool proof of autophagic induction because a blockage in any step leading from autophagosome maturation to its fusion with lysosomes could cause its accumulation. So, the effect of Uttroside B in HepG2 cells were analyzed for autophagy flux, a more accurate read out of autophagy on co-treatment with Bafilomycin, an autophagy-lysosome inhibitor. Bafilomycin A, blocks autophagy by blocking the fusion of autophagosome with lysosome which cause the accumulation of autophagosome or LC3. First, the concentration of Bafilomycin Al required for saturating the blockage of autophagy-lysosome fusion was standardized. The efficacy of Bafilomycin Al, in terms of blocking autophagosome degradation in HepG2, was found peaked at 10 nM, beyond which no further accumulation of LC3 II was noted, which matched with the earlier reports.^32,37,38 […]"}, "[3]": {"details": "literature ref 9; cell line not stated; cited from earlier work"}, "HepG2 cells [4]": {"test_system": "HepG2 cells", "details": "literature ref 14; read-out: IC50 against HepG2 cells; cited from earlier work"}, "U937 leukemia cell line": {"test_system": "U937 leukemia cell line", "details": "literature ref 14; read-out: IC50, cytotoxicity against U937 leukemia cell line; cited from earlier work"}, "human cancer cells": {"test_system": "human cancer cells", "details": "literature ref 22; cited from earlier work"}, "HepG2 cells [5]": {"test_system": "HepG2 cells", "assay": "Cell cycle analysis by flow cytometry (propidium iodide)", "format": "cell-based, human", "details": "HepG2, 25 μM, 24 h", "description": "FIGS. 3A-3F show Uttroside B induces caspase-dependent apoptosis leading to PARP cleavage in HepG2 cells while being independent of cell cycle. FIGS. 3A-3E are images of Western blots showing caspase activation in HepG2 cells. Whole-cell extracts were prepared after treating HepG2 cells with indicated concentrations of Uttroside B for 48 h, the whole cell lysate was resolved on a 15% gel and subjected to western blotting using antibodies against the caspases 8, 9 & 7 detected by ECL. HepG2 cells were treated with Uttroside B for 48 h at different concentrations and the whole cell lysate was resolved on a 10% gel, immunoblotted against anti-PARP and detected by ECL. […] HepG2 cells were treated with Uttroside B for 48 h, stained with propidium iodide and the cell cycle analysis was done using fluorescence activated cell sorter. Curcumin 25 μM (24 h) is used as positive control.\nFlow cytometry: Cell cycle analysis helps in distinguishing the distribution of a population of cells to the different stages of the cycle. Cell cycle analysis using flow cytometry was performed to investigate the cell cycle arrest induced by Uttroside B. Cell cycle analysis is performed by quantitative measurement of nuclear DNA content in a cell by staining DNA with propidium iodide. […]"}, "[6]": {"details": "literature refs 3, 25; cited from earlier work"}, "hepatocellular carcinoma": {"test_system": "hepatocellular carcinoma", "details": "cited from earlier work"}, "HepG2 cells [7]": {"test_system": "HepG2 cells", "assay": "MTT cell viability assay in HepG2 cells", "format": "cell-based, human", "details": "Homo sapiens, HepG2, 72 h, read-out: IC50, cytotoxicity towards HepG2 cells", "description": "Stocks of crude extracts and isolated compound of S. nigrum was prepared in DMSO for the in vitro studies and stored at −20° C. The DMSO concentration in all studies, including controls, was ≤0.2%. Cell viability assay was performed after 72 h of drug treatment while whole cell lysate preparation and cell cycle analysis were done after 24 h and 48 h of drug treatment. For studying NF-κB and AP-1, Uttroside B was incubated for 2 h before extraction.\nMTT [3-(4,5-dimethylthiazole-2-yl)-2,5-diphenyltetrazolium bromide] assay is a standard colorimetric assay, suitable for analyzing proliferation, viability, and cytotoxicity. Briefly, the HepG2 cells were seeded in 96-well plates (2000 cells/well). […] Fresh media containing 25 μL of MTT solution (5 mg/mL in PBS) and 75 μL of complete medium was added to the wells and incubated for 2 h. At the end of incubation, lysis buffer (20% sodium dodecyl sulphate in 50% dimethyl formamide)was added to the wells (0.1 mL/well) and incubated for another 1 h at 37° C. At the end of incubation, the optical density was measured at 570 nm using ELISA plate reader (Bio-Rad). The relative cell viability in percentage was calculated as (A570 of treated samples/A570 of untreated samples)×100. The IC50 values were extrapolated from polynomial regression analysis of study data.^17"}}, "note": "Like-named read-outs stand apart in the source and are kept apart here.", "data": [{"smiles": "Cn1cnc(N)c2ncnc1-2", "note": "[3-MA]", "values": [{"measurement": "effect of autophagy inhibitor on Uttroside B-induced cytotoxicity", "setting": "HepG2 cells [1]", "value": "significantly enhanced"}, {"measurement": "effect of autophagy inhibitor on Uttroside B-induced caspase 9 activation", "setting": "[2]", "value": "enhanced"}, {"measurement": "effect of autophagy inhibitor on Uttroside B-induced cleavage of PARP", "setting": "[2]", "value": "enhanced"}]}, {"smiles": "CO/C1=C\\C(C)=C\\[C@@H](C)[C@@H](O)[C@@H](C)C/C(C)=C/C=C/[C@H](OC)[C@@H]([C@@H](C)[C@@H](O)[C@H](C)[C@@]2(O)C[C@@H](O)[C@H](C)[C@@H](C(C)C)O2)OC1=O", "note": "[Bafilomycin Al]", "values": [{"measurement": "concentration at which blocking of autophagosome degradation peaked", "setting": "LC3 in HepG2 cells", "value": 10, "unit": "nM"}, {"measurement": "effect of autophagy inhibitor on Uttroside B-induced caspase 9 activation", "setting": "[2]", "value": "enhanced"}, {"measurement": "effect of autophagy inhibitor on Uttroside B-induced cleavage of PARP", "setting": "[2]", "value": "enhanced"}]}, {"smiles": "C[C@@H]1CC[C@@]2(OC1)O[C@H]1C[C@H]3[C@@H]4CC[C@H]5C[C@@H](O[C@@H]6O[C@H](CO)[C@H](O[C@@H]7O[C@H](CO)[C@@H](O)[C@H](O[C@@H]8OC[C@@H](O)[C@H](O)[C@H]8O)[C@H]7O[C@@H]7O[C@H](CO)[C@@H](O)[C@H](O)[C@H]7O)[C@H](O)[C@H]6O)CC[C@]5(C)[C@H]4CC[C@]3(C)[C@H]1[C@@H]2C", "note": "[Degalactotigonin]", "values": [{"measurement": "cytotoxicity", "setting": "[3]", "value": 0.25, "unit": "µM"}]}, {"smiles": "C[C@H](CC[C@@]1(O)O[C@H]2C[C@H]3[C@@H]4CC[C@H]5C[C@@H](O[C@@H]6O[C@H](CO)[C@H](O[C@@H]7O[C@H](CO)[C@@H](O)[C@H](O[C@@H]8OC[C@@H](O)[C@H](O)[C@H]8O)[C@H]7O[C@@H]7O[C@H](CO)[C@H](O)[C@H](O)[C@H]7O)[C@H](O)[C@H]6O)CC[C@]5(C)[C@H]4CC[C@]3(C)[C@H]2[C@@H]1C)CO[C@@H]1O[C@H](CO)[C@@H](O)[C@H](O)[C@H]1O", "note": "[Parvispinoside B]", "values": [{"measurement": "IC50", "setting": "HepG2 cells [4]", "value": "> 100", "unit": "µM"}, {"measurement": "IC50", "setting": "U937 leukemia cell line", "value": 0.5, "unit": "µM"}]}, {"smiles": "C[C@H]1CC[C@@]2(OC1)O[C@H]1C[C@H]3[C@@H]4CC[C@@H]5C[C@@H](O)C[C@@H](O[C@@H]6OC[C@@H](O)[C@H](O)[C@H]6O[C@@H]6O[C@@H](C)[C@H](O)[C@@H](O)[C@H]6O)[C@]5(C)[C@H]4CC[C@]3(C)[C@H]1[C@@H]2C", "note": "[RCE-4, (1β,3β,5β,25S)-spirostan-1,3-diol1-[α-L-rhamnopyranosyl-(1→2)-β-Dxylopyranoside]]", "values": [{"measurement": "growth inhibition and apoptosis", "setting": "human cancer cells", "value": "induce growth inhibition and apoptosis in human cancer cells"}]}, {"smiles": "COc1cc(/C=C/C(=O)CC(=O)/C=C/c2ccc(O)c(OC)c2)ccc1O", "note": "[curcumin, reference compound]", "values": [{"measurement": "effect on cell cycle (positive control)", "setting": "HepG2 cells [5]", "value": "readily induced cell cycle arrest at G2/M"}]}, {"smiles": "C[C@@H]1CC[C@@]2(OC1)O[C@H]1C[C@H]3[C@@H]4CC=C5C[C@@H](O)CC[C@]5(C)[C@H]4CC[C@]3(C)[C@H]1[C@@H]2C", "note": "[diosgenin]", "values": [{"measurement": "effect on cell cycle", "setting": "[6]", "value": "block cell cycle in G0/G1 phase"}]}, {"smiles": "C[C@@H]1CC[C@@]2(OC1)O[C@H]1C[C@H]3[C@@H]4CC[C@@H]5C[C@@H](O)CC[C@]5(C)[C@H]4CC[C@]3(C)[C@H]1[C@@H]2C", "note": "[smilagenin]", "values": [{"measurement": "effect on cell cycle", "setting": "[6]", "value": "block cell cycle in G0/G1 phase"}]}, {"smiles": "CNC(=O)c1cc(Oc2ccc(NC(=O)Nc3ccc(Cl)c(C(F)(F)F)c3)cc2)ccn1", "note": "[sorafenib]", "values": [{"measurement": "prolongation of survival rate", "setting": "hepatocellular carcinoma; HCC patients", "value": "up to 20%"}, {"measurement": "side effects", "setting": "hepatocellular carcinoma; reported", "value": "severe side effects"}, {"measurement": "IC50", "setting": "HepG2 cells [7]", "value": 5.8, "unit": "µM"}]}, {"smiles": "C[C@@H]1CC[C@@]2(OC1)O[C@H]1C[C@H]3[C@@H]4CC[C@H]5C[C@@H](O)CC[C@]5(C)[C@H]4CC[C@]3(C)[C@H]1[C@@H]2C", "note": "[tigogenin]", "values": [{"measurement": "effect on cell cycle", "setting": "[6]", "value": "no effect on cell cycle"}]}]}
